Source: patent publication US9896423B2, “Deuterium substituted 1-[2-(2,4-dimethyl-phenylsulfanyl)-phenyl]piperazine compound or derivatives thereof, and pharmaceutical composition and use thereof” (Jiangsu Jibeier Pharmaceutical Co. Ltd., priority 2014, dated 2018)
Where “and” joins values, the source holds several entries; their conditions need not be identical. Identical values can stand only once. Counter-ions that a name gives are not always drawn. Like-named read-outs stand apart in the source and are kept apart here.

Columns and labels:
[1] = test system: Male ICR mice; experiment: Mice tail suspension test; type: in vivo; settings: for effect on length of time that the tail-suspended mice stopped moving vs blank control: two successive weeks; for Duration without Move within 6 min: mice tail suspension, gavage 14 days, n = 10, x ± s
Source text: (§1) The following method is used for testing the antidepression effect of the compound of the present application. ICR mice or SD rats, gavaged for two successive weeks, were subjected to mice swimming test, mice tail suspension test and rats swimming test. See below for details of the tests and results.
The animals, medicaments, calculation of dosages to the mice, preparation of drug solution and apparatus are the same as those in the mice swimming test.
The medicaments were correspondingly administered by gavage, once a day, to the animals in the groups for 14 successive days, with the amount of 0.2 ml per 10 g of body weight. The mice were subjected to tail suspension one hour later after the last oral administration. The suspension continued for 6 min.
(§2) The data was given as “average±standard deviation” (x±s). One-way analysis of variance (ANOVA) was used for data difference statistics. Differences among the groups were determined by P<0.05.

[2] = test system: Male SD rats; experiment: Rats swimming test; type: in vivo; settings: for effect on length of time that the rats stopped swimming vs blank control: 14 days; for Duration without Move within 5 min: rats swimming, gavage 14 days, n = 10, x ± s
Source text: as §1
Male SD rats weighing 200 to 220 g were used and they were fed with sterilized standard feed. The medicaments were the same as those in the mice tail suspension test, but the dosage administered to rats was half of that to mice.
Drug solution preparation: Since the dosage applied on rats was 1 ml/100 g body weight, the medicament solutions used in this test had the same concentrations as those used on mice.
The apparatus was the same as that in the […].
The rats were fasted for 4 hours, put in a round glass tank (ø 18 cm×h 40 cm, with water of 15 cm depth and at a temperature of 25° C.), and were allowed to swim for 15 min. One tank accommodated one rat at a time. The tank was refilled with clean water for another rat after one rat finished swimming. The rats were dried with a hot-air blower after swimming.
The forty rats were divided into 4 groups, each of which has 10 rats, according to the Excel random grouping.
The medicaments were correspondingly administered 1 ml/100 g body weight by gavage, once a day, to the animals in each test group for 14 successive days. The rat swimming test was performed one hour later after the last administration.
as §2

[3] = Pharmacokinetic test in rats, gavage administration; type: in vivo, SD rats; settings: for Concentrations in Plasma of Rats after Oral Administration: 20 mg/kg oral
Description: The preferred compound of the present disclosure was assessed in rats for its pharmacokinetic profile.
SD rats, male and female, weighing 150 to 250 g
Mobile phase: 10 mM ammonium formate aqueous solution:methanol=15:85
The ionization source was electrospray ionization source. The detection mode was positive mode. Multiple reaction monitoring (MRM) was used as the scanning mode. The ion reaction for the quantitative analysis was the following: m/z was 305.2\150.0 for XX, and 256.1\167.1 for diphenhydramine (the internal standard).
XX or YY was orally administered with single dose of 20 mg/kg to six SD rats, one half of which were male and the other half was female. XX or YY was dissolved in 10% hydroxypropyl-β-cyclodextrin. […]
After the blood collection, the tubes were immediately gently turned upside down at least five times to ensure sufficient mixing, and placed on ice. Heparin was added for anticoagulation. The samples were centrifuged at 8000 rpm for 5 min to separate serum from erythrocyte. The serum was transferred with a pipettor to 2 mL polypropylene (PP) tubes, which were marked with the name of the compound and the time points, and stored in a refrigerator at −40° C. before LC-MS analysis. Samples with high concentrations were diluted with rat blank plasma.
2.5 μL of Meth-H2O and 5 μL of the internal standard solution (20 ng/mL, IS) were added to 50 μL of the plasma. Subsequently, 150 μL of methanol was added to the mixture to precipitate protein and the samples were then centrifuged at 13000 rpm for 5 min. The upper organic phase was taken out, filtrated with a 0.22 μM microporous membrane, and 2 μL of the sample was injected for the LC-MS analysis.

## [2H]C([2H])([2H])c1ccc(Sc2ccccc2N2CCNCC2)c(C([2H])([2H])[2H])c1 [XX, 1-{2-[2,4-bis(trideuteriomethyl)phenylsulfanyl]phenyl}piperazine hydrobromic acid salt]
[1]; 1.5 mg/kg gavage
  effect on length of time that the tail-suspended mice stopped moving vs blank control: showed a tendency to shorten
[1]; 3 mg/kg gavage
  effect on length of time that the tail-suspended mice stopped moving vs blank control: markedly shortened
[1]; 1.5 mg/kg
  Duration without Move within 6 min: 212.6 ± 54.9 s
[1]; 3 mg/kg
  Duration without Move within 6 min: 152.9 ± 35.4 s
[2]; 0.75 mg/kg gavage
  effect on length of time that the rats stopped swimming vs blank control: showed a tendency to shorten
[2]; 1.5 mg/kg gavage
  effect on length of time that the rats stopped swimming vs blank control: markedly shortened
[2]; 0.75 mg/kg
  Duration without Move within 5 min: 242.4 ± 43.2 s
[2]; 1.5 mg/kg
  Duration without Move within 5 min: 226.2 ± 43.2 s
[3]; 10 min (Table 5: 0.167 h) after administration, individual rats 1-6
  Concentrations in Plasma of Rats after Oral Administration: 10.6 ng/mL and 7 ng/mL and 7.88 ng/mL and 24.8 ng/mL and 15.6 ng/mL and 16.2 ng/mL
[3]; 1 h, individual rats 1-6
  Concentrations in Plasma of Rats after Oral Administration: 68.4 ng/mL and 83.6 ng/mL and 55.2 ng/mL and 107.6 ng/mL and 144 ng/mL and 115.8 ng/mL
[3]; 1.5 h, individual rats 1-6
  Concentrations in Plasma of Rats after Oral Administration: 91.6 ng/mL and 77.4 ng/mL and 120.8 ng/mL and 142.8 ng/mL and 109.6 ng/mL
[3]; 2 h, individual rats 1-6
  Concentrations in Plasma of Rats after Oral Administration: 86.6 ng/mL and 77.8 ng/mL and 118.4 ng/mL and 119.6 ng/mL and 108 ng/mL
[3]; 3 h, individual rats 1-6
  Concentrations in Plasma of Rats after Oral Administration: 65.8 ng/mL and 53.8 ng/mL and 85.8 ng/mL and 77.6 ng/mL and 71.2 ng/mL
[3]; 4 h, individual rats 1-6
  Concentrations in Plasma of Rats after Oral Administration: 60.8 ng/mL and 56 ng/mL and 61.2 ng/mL and 85.6 ng/mL and 63.4 ng/mL
[3]; 6 h, individual rats 1-6
  Concentrations in Plasma of Rats after Oral Administration: 48.7 ng/mL and 36.8 ng/mL and 42.8 ng/mL and 54.6 ng/mL and 35.5 ng/mL
[3]; 8 h, individual rats 1-6
  Concentrations in Plasma of Rats after Oral Administration: 22.5 ng/mL and 20.9 ng/mL and 31.7 ng/mL and 25.1 ng/mL and 18.9 ng/mL
[3]; 10 h, individual rats 1-6
  Concentrations in Plasma of Rats after Oral Administration: 17.9 ng/mL and 15.5 ng/mL and 20.3 ng/mL and 14.9 ng/mL and 13.5 ng/mL
[3]; 12 h, individual rats 1-6
  Concentrations in Plasma of Rats after Oral Administration: 8.22 ng/mL and 6.78 ng/mL and 11.3 ng/mL and 7.08 ng/mL and 7.2 ng/mL
[3]; 14 h, individual rats 1-6
  Concentrations in Plasma of Rats after Oral Administration: 4.01 ng/mL and 3.56 ng/mL and 7.32 ng/mL and 4.43 ng/mL and 3.11 ng/mL and 3.19 ng/mL
[3]; 24 h, individual rats 1-6
  Concentrations in Plasma of Rats after Oral Administration: 1.46 ng/mL and 0.571 ng/mL and 0.368 ng/mL and 1.32 ng/mL and 0.365 ng/mL and 0.389 ng/mL
[3]; both sexes, SD, rat, plasma, po, 20 mg/kg, rats, oral 20 mg/kg vs iv 2 mg/kg, individual rats 1-6, read-out: F %
  bioavailability: 11%
[3]; both sexes, SD, rat, plasma, po, 20 mg/kg, rats, oral 20 mg/kg, individual rats 1-6, read-out: AUC0-1
  AUC(0-t): 524 ng·h/mL
[3]; both sexes, SD, rat, plasma, po, 20 mg/kg, rats, oral 20 mg/kg, individual rats 1-6, read-out: AUC0-∞
  AUC(0-inf): 532 ng·h/mL
[3]; both sexes, SD, rat, plasma, po, 20 mg/kg, rats, oral 20 mg/kg, individual rats 1-6, read-out: Cmax
  Cmax: 78.6 ng/mL
[3]; both sexes, SD, rat, plasma, po, 20 mg/kg, rats, oral 20 mg/kg, individual rats 1-6, read-out: MRT0-∞
  MRT inf: 5.62 h
[3]; both sexes, SD, rat, plasma, po, 20 mg/kg, rats, oral 20 mg/kg, n = 6, read-out: AUC0-1, Mean ± SD
  AUC(0-t): 583 ± 82.7 ng·h/mL
[3]; both sexes, SD, rat, plasma, po, 20 mg/kg, rats, oral 20 mg/kg, n = 6, read-out: AUC0-∞, Mean ± SD
  AUC(0-inf): 586 ± 82.8 ng·h/mL
[3]; both sexes, SD, rat, plasma, po, 20 mg/kg, rats, oral 20 mg/kg, n = 6, read-out: Cmax, Mean ± SD
  Cmax: 105 ± 26.5 ng/mL
[3]; both sexes, SD, rat, plasma, po, 20 mg/kg, rats, oral 20 mg/kg, n = 6, read-out: MRT0-∞, Mean ± SD
  MRT inf: 4.93 ± 0.58 h
[3]; both sexes, SD, rat, plasma, po, 20 mg/kg, rats, oral 20 mg/kg, n = 6, read-out: t1/2, Mean ± SD (converted)
  half-life: 2.92 ± 0.8 h
